Experimental data reported in patent US20070117743A1, “New antitumoral compounds” (priority 2003, published 2007).
Where a SMILES comes first, the peptide text is derived from it. Bridges are numbered along the chain shown (N, C = ends). [ ]: non-standard residue; d: D form. The star is where a group is joined. d(aIle) = CC[C@H](C)[C@@H](N)C(=O)O; d(aThr) = C[C@@H](O)[C@@H](N)C(=O)O; Hexanoyl(5-Me) = CC(C)CCCC(=O)*; Orn = NCCC[C@H](N)C(=O)O

Key:
Assay type in all cases: cell-based, human
Details in all cases: 48 hours exposure
A-549 = experiment: SRB colorimetric assay of cell growth and viability, A-549
SK-MEL-28 = experiment: SRB colorimetric assay of cell growth and viability, SK-MEL-28
HT-29 = experiment: SRB colorimetric assay of cell growth and viability, HT-29
LoVo = experiment: SRB colorimetric assay of cell growth and viability, LoVo
LoVo-Dox = experiment: SRB colorimetric assay of cell growth and viability, LoVo-Dox
Outline: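 First, 5×10^3 cells per well attach for 18 hours in RPMI 1640 with 10% FBS at 37° C and 5% CO2. Next, samples spanning 10 to 10^−8 μg/mL are added for 48 hours. Finally, cells are fixed with TCA, stained with SRB for 10 minutes and read at 490 nm.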

DU-145 = experiment: SRB colorimetric assay of cell growth and viability, DU-145
LNCaP = experiment: SRB colorimetric assay of cell growth and viability, LNCaP
SK-BR-3 = experiment: SRB colorimetric assay of cell growth and viability, SK-BR-3
IGROV-1 = experiment: SRB colorimetric assay of cell growth and viability, IGROV-1
IGROV-ET = experiment: SRB colorimetric assay of cell growth and viability, IGROV-ET
HeLa = experiment: SRB colorimetric assay of cell growth and viability, HeLa
HeLa-APL = experiment: SRB colorimetric assay of cell growth and viability, HeLa-APL
K-562 = experiment: SRB colorimetric assay of cell growth and viability, K-562
PANC-1 = experiment: SRB colorimetric assay of cell growth and viability, PANC-1

In the case of `CC[C@H](C)[C@@H](NC(=O)[C@H](CCCN)NC(=O)[C@H]1CCCN1C(=O)[C@H](NC(=O)[C@@H](NC(=O)[C@@H](NC(=O)[C@H](NC(=O)CCCC(C)C)C(C)C)[C@@H](C)O)C(C)C)C(C)C)C(=O)N[C@H]1C(=O)N[C@H]([C@@H](C)CC)C(=O)N[C@H](C(C)C)C(=O)N[C@@H](Cc2ccccc2)C(=O)NCC(=O)N[C@@H](C(C)C)C(=O)O[C@@H]1C` [Compound 65, [Gly^2]-KF] ({Hexanoyl(5-Me)}-[dV]TV[dV][dP][Orn][d(aIle)][d(aThr)][d(aIle)][dV]FGV; ester 8-C), the “TGI A-549” value (A-549; SRB) is reported as 4.99E−06 Molar, the GI50 (A-549; SRB, read-out: GI50 A-549) is reported as 1.95 µM and the CC50 (A-549; SRB, read-out: LC50 A-549) is reported as at least 6.89 µM. For the same compound, the GI50 (SK-MEL-28) was 1.43 µM, the “TGI MEL-28” value (SK-MEL-28) was 3.39E−06 Molar and the CC50 (SK-MEL-28; read-out: LC50 MEL-28) was at least 6.89 µM. The “TGI HT-29” value (HT-29; SRB) was 2.54E−06 Molar, the GI50 (HT-29; SRB, read-out: GI50 HT-29) was 1.23 µM and the CC50 (HT-29; SRB, read-out: LC50 HT-29) was 5.28 µM. For the same compound, the GI50 (LoVo; SRB) was 1.03 µM, the “TGI LOVO” value (LoVo; SRB) was 1.98E−06 Molar and the CC50 (LoVo; SRB, read-out: LC50 LOVO) was 3.81 µM. For the same compound, the GI50 (LoVo-Dox; SRB) was 0.557 µM, the “TGI LOVO-DOX” value (LoVo-Dox; SRB) was 1.53E−06 Molar and the CC50 (LoVo-Dox; SRB, read-out: LC50 LOVO-DOX) was 3.81 µM. For the same compound, the GI50 (DU-145) was 1.17 µM, the LC50 (concentration causing 50% net cell kill) (DU-145) was 4.44 µM and the “TGI DU-145” value (DU-145) was 2.28E−06 Molar. For the same compound, the “TGI LN-caP” value (LNCaP) was 6.89E−06 Molar, the GI50 (LNCaP; read-out: GI50 LN-caP) was 3.48 µM and the CC50 (LNCaP; read-out: LC50 LN-caP) was at least 6.89 µM. The GI50 (SK-BR-3) was 1.16 µM, the LC50 (SK-BR-3) was 4.19 µM and the “TGI SK-BR-3” value (SK-BR-3) was 2.21E−06 Molar. For the same compound, the GI50 (IGROV-1) was 1.44 µM, the LC50 (concentration causing 50% net cell killing) (IGROV-1) was 4.96 µM and the “TGI IGROV” value (IGROV-1) was 2.67E−06 Molar. For the same compound, the GI50 (IGROV-ET) was 0.806 µM, the “TGI IGROV-ET” value (IGROV-ET) was 1.69E−06 Molar and the CC50 (IGROV-ET; read-out: LC50 IGROV-ET) was 3.56 µM. The GI50 (HeLa; SRB) was 1.21 µM, the “TGI HELA” value (HeLa; SRB) was 1.99E−06 Molar and the CC50 (HeLa; SRB, read-out: LC50 HELA) was 3.26 µM. The GI50 (HeLa-APL; SRB) was 2.23 µM, the “TGI HELA-APL” value (HeLa-APL; SRB) was 6.89E−06 Molar and the CC50 (HeLa-APL; SRB, read-out: LC50 HELA-APL) was at least 6.89 µM. For the same compound, the GI50 (K-562; SRB) was 3 µM, the “TGI K-562” value (K-562; SRB) was 6.89E−06 Molar and the CC50 (K-562; SRB, read-out: LC50 K-562) was at least 6.89 µM. The GI50 (PANC-1; SRB) was at least 6.89 µM, the “TGI PANC-1” value (PANC-1; SRB) was 6.89E−06 Molar and the CC50 (PANC-1; SRB, read-out: LC50 PANC-1) was at least 6.89 µM.
In the case of `C/C=C1\NC(=O)[C@H](Cc2ccccc2)NC(=O)[C@@H](C(C)C)NC(=O)[C@@H]([C@@H](C)CC)NC(=O)[C@H](NC(=O)[C@H](NC(=O)[C@H](CCCN)NC(=O)[C@H]2CCCN2C(=O)[C@H](NC(=O)[C@@H](NC(=O)[C@@H](NC(=O)[C@@H](C(C)C)N(CCCCCCC)CCCCCCC)[C@@H](C)O)C(C)C)C(C)C)[C@@H](C)CC)[C@@H](C)OC(=O)[C@H](C(C)C)NC1=O` [Compound 98, [no5-MeHex^14-N-(Hep)2-D-Val^13]-Kahalalide F], the “TGI A-549” value (A-549; A-549) is reported as 6.40E−06 Molar, the “TGI MEL-28” value (SK-MEL-28; SRB) is reported as 6.40E−06 Molar and the “TGI HT-29” value (HT-29; HT-29) is reported as 6.40E−06 Molar. The “TGI LOVO” value (LoVo; LOVO) was 6.40E−06 Molar, the “TGI LOVO-DOX” value (LoVo-Dox; LOVO-DOX) was 6.40E−06 Molar and the “TGI DU-145” value (DU-145; SRB) was 6.40E−06 Molar. The “TGI LN-caP” value (LNCaP; SRB) was 6.40E−06 Molar, the “TGI SK-BR-3” value (SK-BR-3; SRB) was 6.40E−06 Molar and the “TGI IGROV” value (IGROV-1; SRB) was 6.40E−06 Molar. For the same compound, the “TGI IGROV-ET” value (IGROV-ET; SRB) was 6.40E−06 Molar, the “TGI HELA” value (HeLa; HELA) was 2.43E−06 Molar and the “TGI HELA-APL” value (HeLa-APL; HELA-APL) was 3.46E−06 Molar. For the same compound, the “TGI K-562” value (K-562; K-562) was 6.40E−06 Molar and the “TGI PANC-1” value (PANC-1; PANC-1) was 6.40E−06 Molar.
